pEC50: −log10 of the molar value.
What was measured:
N548 mutant cells = test: cells; conditions: for Activity: scale not defined; for maximal fold induction: read-out: N548 Mut: Max, maximum rescue expressed as fold over DMSO treated N548 mutant cells; for selectivity profile of cell death rescue in panel of htt expressing cell lines: N63, N548, FL htt cell lines, in words
Procedure: Embryonic rat striatal neurons were conditionally immortalized by stably transfecting a temperature-sensitive SV40 large T-antigen (T-ag) to generate the ST14A cell line. ST14A cells proliferate at the permissive temperature (33° C.), but stop dividing at 39° C., as a result of T-ag degradation. […] As htt protein context modulates polyQ toxicity, testing these different length htt proteins could provide insight into the basis for context dependence.
ST14A Assay System: Calcein acetoxylmethyl ester (AM) (Molecular Probes, Eugene, Oreg.) is a non-fluorescent, membrane-permeable compound that is cleaved by intracellular esterases, which subsequently forms the anionic, fluorescent compound, calcein, that cannot permeate the cell membrane. […] A fluorescence viability assay, that is based on conversion of a non-fluorescent substrate (calcein AM) to a fluorescent product by nonspecific esterases in live cells, was employed to monitor cell death in wild type (wt) ST14A-Htt and mut ST14A-Htt cell lines. Cell death is indicated by a decrease in fluorescence. […] 3 μl of each compound was transferred from daughter plates to triplicate assay plates for a final assay concentration of 4 μg/ml in 0.1% DMSO (10 μM for NINDS compounds). Cells were incubated at 33° C. for 3 h to enhance attachment and then shifted to 39° C. (with 5% CO2). After 3 days (d), cells were washed 10 times with phosphate buffered saline (PBS) leaving 20 μl residual PBS per well, and 20 μl of 2 μg/ml calcein AM (Molecular probes) in PBS was added per well. […] The fluorescence intensity in each well was normalized to the median of each plate. The median normalized fluorescence of each triplicate assay wells was determined. A well with more than 50% increase in intensity above the median signal intensity was considered a “hit.”
Assay Development: An assay was developed for detecting mutant htt-induced cell death in ST14A cells in a 384-well plate format. A calcein AM-based method was used to detect cell viability, and optimized the cell number and time course for this method. […] A cell number titration was performed to determine the cell density at which calcein fluorescence was not saturated and the coefficient of variation (CV) was low (FIG. 14A-B). A low CV is critical for a high-throughput assay as it decreases noise and enhances sensitivity. […] Next, the kinetics of the fluorescence signal were determined.
Next, the serum concentrations that induce cell death in these cells were determined. Cells were seeded in decreasing serum (IFS) concentrations (5 to 0%), and cell viability was assayed after 3 d using the calcein AM assay (FIG. 14E).
A Z′ value of greater than 0 is required for a usable assay, with a maximum value of 1.0 for an ideal assay. For the assay, calcein fluorescence was used on the day of seeding to represent 100% rescue. The difference in calcein fluorescence signal on the day of seeding and after different number of days under serum deprivation was determined and used to calculate the Z′ factor. […] About 47,000 compounds were assayed in a 384-well plate format in triplicate to enhance the reliability of the primary screen.

[1] = Rescue and toxicity of Compound 164 and analogs (Table 4); conditions: for TC50: Table 4, toxicity; for Max % Toxicity: Table 4, cell model not stated
[2] = nonselective hits (rescue also parental ST14A), 0.5% IFS, 39° C., 3 d
[3] = Rattus norvegicus, read-out: EC50 based on activity in N548 mutant cells
[4] = read-out: EC50 based on activity in N548 mutant cells

Row | Compound | maximal fold induction (N548 mutant cells; Rattus norvegicus, 72 h) | pEC50 (N548 mutant cells; [3]) | EC50 (N548 mutant cells; [3]) | also measured
1 | CCCC1O[C@@H]2C[C@H]3[C@@H]4CCC5=CC(=O)C=C[C@]5(C)[C@H]4[C@@H](O)C[C@]3(C)[C@]2(C(=O)CO)O1 (stereo partly shown) [Budesonide, reference compound] | – | – | – | pEC50 (N548 mutant cells; Rattus norvegicus, ST14A, 72 h): 6.30; Activity (N548 mutant cells; nonselective hits): 2
2 | CCOC(=O)C(C)(C)Oc1ccc(Cl)cc1 [Clofibrate, reference compound] | – | – | – | pEC50 (N548 mutant cells; Rattus norvegicus, ST14A, 72 h): 6.00; Activity (N548 mutant cells; nonselective hits): 2
3 | O=C(O)c1cc([N+](=O)[O-])ccc1NCCCc1ccccc1 [Compound 2-NPPB, reference compound] | – | – | – | pEC50 (N548 mutant cells; [2]): 5.00; Activity (N548 mutant cells; nonselective hits): 1.5; CC50 (N548 mutant cells; read-out: TC50, nonselective hits, maximum concentration tested 80 μM): 40000 nM
4 | CC[C@@]1(C)CC(CCN(Cc2ccco2)C(C)=O)(c2ccccc2)CCO1 (stereo partly shown) [Compound 164-1] | – | – | – | pEC50 [1]: 5.70; TC50 [1]: 8000 nM
5 | Cc1ccc(C2(CCNC(=O)c3ccc(Br)o3)CCOC(C(C)C)C2)cc1 (stereo not shown) [Compound 164-2] | – | – | – | pEC50 [1]: 6.36; Max % Toxicity [1]: 53.69%
6 | CCC(=O)N(CCC(Cc1ccccc1)C1CCOC(C)(C)C1)Cc1ccco1 (stereo not shown) [Compound 164-3] | – | – | – | pEC50 [1]: 6.70; TC50 [1]: 8000 nM; Max % Toxicity [1]: 56.80%
7 | CC(c1ccccc1)N(CCC(Cc1ccccc1)C1COCC(C)(C)C1)C(=O)c1ccco1 (stereo not shown) [Compound 164-4] | – | – | – | TC50 [1]: 400 nM; Max % Toxicity [1]: 64.22%
8 | COc1cc([C@@H]2c3cc4c(cc3[C@H](O)[C@H]3COC(=O)[C@H]23)OCO4)cc(OC)c1OC [Podophyllotoxin, reference compound] | 2.5 | 7.60 | – | –
9 | CCCCC[C@H](O)/C=C/[C@H]1[C@H](O)CC(=O)[C@@H]1C/C=C\CCCC(=O)O [Prostaglandin E2, reference compound] | – | – | – | pEC50 (N548 mutant cells; [2]): 7.00; Activity (N548 mutant cells; nonselective hits): 2
10 | C[C@H](O)[C@H](O)[C@H]1CNc2nc(N)[nH]c(=O)c2N1 [Tetrahydrobiopterin, reference compound] | – | – | – | pEC50 (N548 mutant cells; Rattus norvegicus, ST14A, 72 h): 6.30; Activity (N548 mutant cells; nonselective hits): 2.5
11 | CC1=C(/C=C/C(C)=C/C=C/C(C)=C/C(=O)O)C(C)(C)CCC1 [Tretinoin, reference compound] | – | – | – | pEC50 (N548 mutant cells; Rattus norvegicus, ST14A, 72 h): 6.22; Activity (N548 mutant cells; nonselective hits): 2.5
12 | CC1OC(=O)C(C(C)C)NC(=O)C(C(C)C)OC(=O)C(C(C)C)NC(=O)C(C)OC(=O)C(C(C)C)NC(=O)C(C(C)C)OC(=O)C(C(C)C)NC(=O)C(C)OC(O)C(C(C)C)NC(=O)C(C(C)C)OC(=O)C(C(C)C)NC1=O (stereo not shown) [Valinomycin A, reference compound] | 2.5 | 6.82 | – | –
13 | CC[C@]1(O)C[C@H]2CN(CCc3c([nH]c4ccccc34)[C@@](C(=O)OC)(c3cc4c(cc3OC)N(C=O)[C@H]3[C@@](O)(C(=O)OC)[C@H](OC(C)=O)[C@]5(CC)C=CCN6CC[C@]43[C@@H]65)C2)C1 [Vincristine, reference compound] | – | – | – | N548 Mut: Max, maximum rescue expressed as fold over DMSO treated N548 mutant cells (N548 mutant cells; 0.5% IFS, 39° C., 3 d): 2.5 fold; pEC50 (N548 mutant cells; [4]): 7.40
14 | CCCOc1ccccc1-c1nc2nn[nH]c2c(=O)[nH]1 [Zaprinast, reference compound] | – | – | – | pEC50 (N548 mutant cells; Rattus norvegicus, ST14A, 72 h): 5.30; Activity (N548 mutant cells; nonselective hits): 1.5
15 | CCCc1cc(OC(=O)C(CC)c2ccccc2)n(-c2cccc(F)c2)n1 (stereo not shown) [revertin-1b] | 25 | – | 4 µg/mL | selectivity profile of cell death rescue in panel of htt expressing cell lines (N548 mutant cells): selectively rescued cell death in all mutant htt-expressing cell lines
16 | COc1ccccc1C(CCN(C(C)=O)C(C)c1ccccc1)C1CCC(C)(C)OC1 (stereo not shown) [revertin-3] | 4 | – | 2 µg/mL | –
17 | COc1cc(CC(=O)NC(C)C2C(=O)CC3C2C3(C)C)cc(OC)c1OC (stereo not shown) [revertin-4] | 1.5 | – | 4 µg/mL | –
18 | CC1(C)C(C=C(Cl)Cl)C1C(=O)C1=C(O)CCCC1=O (stereo not shown) [revertin-6] | 8 | – | 3 µg/mL | selectivity profile of cell death rescue in panel of htt expressing cell lines (N548 mutant cells): N548 mutant selective
19 | CCCCCCN(C(=O)CCCC)C(C)c1nc2ccccc2c(=O)n1-c1ccccc1OC (stereo not shown) [revertin-10] | 1.5 | – | 4 µg/mL | selectivity profile of cell death rescue in panel of htt expressing cell lines (N548 mutant cells): N63 and N548 mutant selective
20 | O=c1cccc2n1CC1CC2CN(C2=NC=NC3c4cc(Cl)ccc4NC23)C1 (stereo not shown) [revertin-12] | 1.5 | – | 3 µg/mL | –

Row | Compound | maximal fold induction (N548 mutant cells; Rattus norvegicus, 72 h) | pEC50 (N548 mutant cells; [3]) | EC50 (N548 mutant cells; [3]) | also measured
21 | O=[N+]([O-])c1cc(CN2CCN(CCO)CC2)ccc1Cl [revertin-13] | 1.5 | – | 5 µg/mL | –
22 | CCOC(=O)c1cccc(NS(O)(O)c2ccc(OC)cc2)c1 [revertin-14] | – | – | – | selectivity profile of cell death rescue in panel of htt expressing cell lines (N548 mutant cells): N548 and FL-mutant selective
23 | O=c1[nH]c2c(c(=O)[nH]1)C(c1cccc([N+](=O)[O-])c1)C=C(c1ccccc1)O2 (stereo not shown) [revertin-15] | 3 | – | 1 µg/mL | –
24 | CCCN1C(=O)C(=O)c2cc(C)ccc21 [revertin-16] | 2 | – | 1 µg/mL | –
25 | CC(C)CC(NC(=O)OCc1ccccc1)C(=O)Oc1ccc2c(=O)c(-c3ccc([N+](=O)O)cc3)coc2c1 (stereo not shown) [revertin-17] | 1.5 | – | 4 µg/mL | –
26 | COc1ccc(C(CCN(CC2CCOC(C)(C)C2)C(C)=O)c2ccccc2)cc1 (stereo not shown) [revertin-18] | 1.5 | – | 4 µg/mL | –
27 | COc1cc2c3c(c1)C(C)CC(C)(C)N3C(=O)C2=O (stereo not shown) [revertin-19] | 2 | – | 4 µg/mL | –
28 | COc1ccc(CN(CCC2(c3ccccc3)CCOC(C)(C)C2)C(=O)c2ccco2)cc1OC (stereo not shown) [revertin-20] | 2 | – | 8 µg/mL | –
29 | Cc1ccc(-c2nc(NS(=O)(=O)c3ccc(Cl)cc3)sc2C)cc1 [revertin-21] | 3 | – | 4 µg/mL | –
30 | CC(=O)N(c1ccc(Br)cc1)C1C(=O)c2ccccc2C(=O)C1N(C)C (stereo not shown) [revertin-24] | 25 | – | 2 µg/mL | –
31 | CCC1CN2CCc3cc(OC)c(OC)cc3C2CC1CC1c2cc(OC)c(OC)cc2CCN1C(=O)c1ccco1 (stereo not shown) [revertin-25] | 4 | – | 3 µg/mL | –
32 | CC12CC3CC(C)(C1)CC(NC=O)(C3)C2 [revertin-26] | 1.5 | – | 5 µg/mL | –
33 | Oc1ccc2c(c1)CC1NCCc3cc(O)c(O)c-2c31 (stereo not shown) [revertin-27] | 3 | – | 4 µg/mL | –
34 | CC1=NN(C(N)=S)C(=O)C1NNc1ccccc1C(F)(F)F (stereo not shown) [revertin-29] | 3 | – | 2 µg/mL | –
35 | CC(C)C1=CCC2C(=C1)CCC1C(C(=O)O)CCCC21C (stereo not shown) [revertin-30] | 4 | – | 2 µg/mL | –
36 | O=C(NNC(C(=O)Cc1cccs1)C(F)(F)F)c1cccc(Br)c1 (stereo not shown) [revertin-31] | 4 | – | 2 µg/mL | –
37 | Antimycin A [reference compound] | – | – | – | N548 Mut: Max, maximum rescue expressed as fold over DMSO treated N548 mutant cells (N548 mutant cells; 0.5% IFS, 39° C., 3 d): 3 fold; pEC50 (N548 mutant cells; [4]): 5.30
38 | Nonactin [reference compound] | – | – | – | N548 Mut: Max, maximum rescue expressed as fold over DMSO treated N548 mutant cells (N548 mutant cells; 0.5% IFS, 39° C., 3 d): 2.5 fold; pEC50 (N548 mutant cells; [4]): 6.22
39 | Rotenone [reference compound] | – | – | – | N548 Mut: Max, maximum rescue expressed as fold over DMSO treated N548 mutant cells (N548 mutant cells; 0.5% IFS, 39° C., 3 d): 2.5 fold; pEC50 (N548 mutant cells; [4]): 5.30
